Laboratory results from patent publication EP0624584B1, “Piperazine derivatives useful as calmodulin inhibitors” (DAIICHI PHARMACEUTICAL CO., LTD., priority 1993, dated 1994).

Columns and labels:
[1] = tested on: Nitrogen-induced Hypoxia Model in Mouse; experiment: Activity on nitrogen-induced hypoxia model in mouse; type: in vivo; conditions: 30 mg/kg, p.o.; 60 minutes after administration; time to respiratory standstill over that of a control group (100%)
Description: Nine to ten mice per group were each orally given […] of a test compound. After 60 minutes from the administration, each mouse was put in a 500 mℓ-volume transparent container having a vent hole, and nitrogen gas was introduced into the container at a rate of 5000 mℓ/min. The time from the start of nitrogen introduction to respiratory standstill was measured, and a rate of increase of the time over that of a control group (100%) was obtained.

[2] = biological target: calmodulin-depending cyclic nucleotide phosphodiesterase (PDE); experiment: Calmodulin (CaM) inhibitory activity: inhibition of Ca/calmodulin-dependent PDE activity; type: biochemical; conditions: concentration showing 50% inhibition of PDE activity potentiated by CaM; CaM and PDE from bovine brain, [3H]-cGMP, 30°C, 10 minutes
Description: The calmodulin inhibitory activity of a compound was evaluated by using its effect of inhibiting calmodulin-depending cyclic nucleotide phosphodiesterase (PDE) as an index. The assay for PDE inhibitory activity was carried out by the following procedure described by Thompson (Advances in Cyclic Nucleotide Research, 10, 69, 1979) with a modification. The first-stage incubation was carried out at 30°C for 10 minutes with the following reaction mixture: 50 mM Tris-HCl buffer (pH 7.5), 5 mM MgCl2, 1 mg/ml bovine serum albumin, CaM from bovine brain, [^3H]-cGMP, 1 mM CaCl2 or 1 mM EGTA, PDE from bovine brain, and a test compound in a total volume of 0.5 ml. After the incubation, the mixture was heated on a boiling water bath for 1 minute. Then, 50 µl of snake venom (1 mg/ml) was added to the reaction mixture and the whole mixture was incubated at 30°C for 10 minutes. After the incubation, 0.5 ml of AG1-X2 resin (1:1 slurry in water) was added to the mixture and centrifuged at 3000Xrpm for 20 min. The radioactivity of the supernatant solution was measured by a liquid scintillation counter. The IC50 value was determined as the concentration showing 50% inhibition of PDE activity potentiated by CaM.

Structure (SMILES)	Rate of Increase of Survival Time [1]	IC50 [2]
COc1ccc(Cn2nc(CCN3CCN(c4cccc(Cl)c4C)CC3)c3cc(OC)c(OC)cc32)cc1OC [Example 12, 3-(2-(4-(3-Chloro-2-methylphenyl)-1-piperazinyl)-ethyl)-5 6-dimethoxy-1-(3,4-dimethoxybenzyl)-1H-indazole]	19.2%	3.1 µM
COc1cc2c(CCN3CCN(c4cccc(Cl)c4C)CC3)nn(Cc3c[nH]cn3)c2cc1OC [Example 15, 3-(2-(4-(3-Chloro-2-methylphenyl)-1-piperazinyl)-ethyl)-5,6-dimethoxy-1-(4-imidazolylmethyl)-1H-indazole]	15.1%	5.5 µM
NCCCCCCNS(=O)(=O)c1cccc2c(Cl)cccc12 [Example W-7, reference compound]	–	33.5 µM
